Assay results: PubChem BioAssay AID248 (DTP/NCI, 2004)
Where “and” joins values, the source holds several entries; their conditions need not be identical. Identical values can stand only once. Toxic doses and inconclusive results are not listed. Rule as the data show it: active = T/C of 150% or more; inactive = T/C below 125%.

Test system: L1210 leukemia ip in BDF1 mice, survival T/C
Test: NCI In Vivo Anticancer Drug Screen. Data for tumor model L1210 Leukemia (intraperitoneal) in B6D2F1 (BDF1) mice
Conditions: endpoint: mean survival time, higher = longer survival
Method in brief: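 Ratio derived from survival: compound-dosed mice over vehicle-dosed mice, all bearing a transplantable tumor.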

[1] = dose: 100.0 mg/kg/injection, schedule: Q01DX009 (ip), vehicle: Klucel (hydroxypropylcellulose) (HPC)
[2] = dose: 100.0 mg/kg/injection, schedule: Q04DX003 (ip), vehicle: Klucel (hydroxypropylcellulose) (HPC)
[3] = dose: 200.0 mg/kg/injection, schedule: Q04DX003 (ip), vehicle: Klucel (hydroxypropylcellulose) (HPC)
[4] = dose: 400.0 mg/kg/injection, schedule: Q04DX003 (ip), vehicle: Klucel (hydroxypropylcellulose) (HPC)
[5] = dose: 6.25 mg/kg/injection, schedule: Q04DX003 (ip), vehicle: saline with Tween-80
[6] = dose: 12.5 mg/kg/injection, schedule: Q04DX003 (ip), vehicle: saline with Tween-80

Measured: T/C

CCC(=O)C(c1ccccc1)(c1ccccc1)C(C)CN(C)C (stereo not drawn)
inactive: dose: 5.0 mg/kg/injection, schedule: Q01DX001 (ip), vehicle: saline 102 % of control | dose: 10.0 mg/kg/injection, schedule: Q01DX001 (ip), vehicle: saline 104 % of control | dose: 20.0 mg/kg/injection, schedule: Q01DX001 (ip), vehicle: saline 96 % of control | dose: 40.0 mg/kg/injection, schedule: Q01DX001 (ip), vehicle: saline 87 % of control

O=C(COc1ccccc1)NCCO
inactive: [1] 110 % of control | [2] 100 % of control | dose: 200.0 mg/kg/injection, schedule: Q01DX009 (ip), vehicle: Klucel (hydroxypropylcellulose) (HPC) 103 % of control | [3] 97 % of control | dose: 400.0 mg/kg/injection, schedule: Q01DX009 (ip), vehicle: Klucel (hydroxypropylcellulose) (HPC) 111 % of control | [4] 102 % of control

O=C(/C=C/c1ccc(Cl)c(Cl)c1)c1ccc(Cl)cc1
inactive: dose: 6.25 mg/kg/injection, schedule: Q01DX009 (ip), vehicle: saline with Tween-80 97 % of control | [5] 110 % of control | dose: 12.5 mg/kg/injection, schedule: Q01DX009 (ip), vehicle: saline with Tween-80 97 % of control | [6] 96 % of control | dose: 25.0 mg/kg/injection, schedule: Q01DX009 (ip), vehicle: saline with Tween-80 95 % of control | dose: 25.0 mg/kg/injection, schedule: Q04DX003 (ip), vehicle: saline with Tween-80 94 % of control and 89 % of control | dose: 100.0 mg/kg/injection, schedule: Q04DX003 (ip), vehicle: saline with Tween-80 87 % of control and 88 % of control

COc1ccc(/C(C)=N/N=C(\C)c2ccc(OC)cc2)cc1
inactive: dose: 200.0 mg/kg/injection, schedule: Q04DX003 (ip), vehicle: saline with Tween-80 94 % of control | dose: 400.0 mg/kg/injection, schedule: Q04DX003 (ip), vehicle: saline with Tween-80 91 % of control

O=C(Nc1cc([N+](=O)[O-])ccc1O)c1ccccc1Cl
inactive: dose: 100.0 mg/kg/injection, schedule: Q01DX009 (ip), vehicle: saline 101 % of control | dose: 200.0 mg/kg/injection, schedule: Q01DX009 (ip), vehicle: saline 97 % of control | dose: 400.0 mg/kg/injection, schedule: Q01DX009 (ip), vehicle: saline 98 % of control

O=C1O/C(=C/Br)C=C1Br
inactive: dose: 3.12 mg/kg/injection, schedule: Q04DX003 (ip), vehicle: saline with Tween-80 95 % of control | [5] 92 % of control | [6] 92 % of control | dose: 12.5 mg/kg/injection, schedule: Q04DX003 (ip), vehicle: saline 100 % of control | dose: 25.0 mg/kg/injection, schedule: Q04DX003 (ip), vehicle: saline 97 % of control

CC1C(C)(C)P(=O)(SCc2ccccc2)C1(C)C (stereo not drawn)
inactive: dose: 100.0 mg/kg/injection, schedule: Q04DX003 (ip), vehicle: saline 94 % of control | dose: 200.0 mg/kg/injection, schedule: Q04DX003 (ip), vehicle: saline 103 % of control | dose: 400.0 mg/kg/injection, schedule: Q04DX003 (ip), vehicle: saline 100 % of control

O=C1NC(=O)c2ccc(Br)c3cccc1c23
inactive: dose: 100.0 mg/kg/injection, schedule: Q04DX002 (ip), vehicle: Klucel (hydroxypropylcellulose) (HPC) 96 % of control | dose: 200.0 mg/kg/injection, schedule: Q04DX002 (ip), vehicle: Klucel (hydroxypropylcellulose) (HPC) 96 % of control | dose: 400.0 mg/kg/injection, schedule: Q04DX002 (ip), vehicle: Klucel (hydroxypropylcellulose) (HPC) 93 % of control

Cc1c(C)c(C)c([N+](=O)[O-])c([N+](=O)[O-])c1C
inactive: dose: 50.0 mg/kg/injection, schedule: Q01DX009 (ip), vehicle: saline with Tween-80 112 % of control | dose: 100.0 mg/kg/injection, schedule: Q01DX009 (ip), vehicle: saline with Tween-80 93 % of control | dose: 100.0 mg/kg/injection, schedule: Q04DX002 (ip), vehicle: saline with Tween-80 97 % of control | dose: 200.0 mg/kg/injection, schedule: Q01DX009 (ip), vehicle: saline with Tween-80 93 % of control | dose: 200.0 mg/kg/injection, schedule: Q04DX002 (ip), vehicle: saline with Tween-80 114 % of control

OC(c1ccccc1)(c1ccccc1)C1CCC1
inactive: dose: 50.0 mg/kg/injection, schedule: Q01DX009 (ip), vehicle: Klucel (hydroxypropylcellulose) (HPC) 100 % of control | dose: 75.0 mg/kg/injection, schedule: Q01DX001 (ip), vehicle: Klucel (hydroxypropylcellulose) (HPC) 95 % of control | [1] 94 % of control | dose: 150.0 mg/kg/injection, schedule: Q01DX001 (ip), vehicle: Klucel (hydroxypropylcellulose) (HPC) 101 % of control | dose: 300.0 mg/kg/injection, schedule: Q01DX001 (ip), vehicle: Klucel (hydroxypropylcellulose) (HPC) 98 % of control

Cc1ccc2no[n+]([O-])c2c1
inactive: dose: 20.0 mg/kg/injection, schedule: Q01DX009 (ip), vehicle: Klucel (hydroxypropylcellulose) (HPC) 111 % of control | dose: 40.0 mg/kg/injection, schedule: Q01DX009 (ip), vehicle: Klucel (hydroxypropylcellulose) (HPC) 108 % of control

Nc1ncnc2nc(N=Nc3ccc(S(N)(=O)=O)cc3)[nH]c12
inactive: [2] 108 % of control | [3] 102 % of control | [4] 100 % of control
